What was measured:
[1] = system: antibodies raised to Immunogens I & II; experiment: Competitive ELISA (Example 19), sensitivity and cross-reactivity of selected molecules, one result for both antibodies; assay type: binding, sheep; details: for % CR / IC50: first Table 3, Standard Conc 750.00 ng/ml; for binding / cross-reaction with antibodies raised from Immunogens I and II: result in words
Experimental: (§1) Aqueous solutions of the immunogens prepared in examples 5 and 13 were formulated with Freund's Complete Adjuvant (FCA) to form emulsions consisting of 2mg/ml Immunogen I and 2mg/ml of Immunogen II in 50%(v/v) FCA. Three sheep were immunised with each emulsion (1° immunisations), 0.25ml being intramuscularly injected at four sites in the rump of each animal. Subsequent immunisations (boosts 2-8) contained 1mg/ml Immunogen I and 1mg/ml Immunogen II. All boosts were emulsified in 50%(v/v) Freund's Incomplete Adjuvant (FIA) and administered to the appropriate sheep in the same manner as the 1° immunisations, at monthly intervals. Blood sampling took place 7-14 days after each boost. Each sample was processed to produce antiserum, which was further purified by caprylic acid and ammonium sulphate precipitation to yield an immunoglobulin (Ig) fraction. The Ig fraction was evaluated by competitive ELISA microtiter plate assay, as described in example 19 below.
(§2) Example 19: Development of competitive ELISA for JWH synthetic cannabinoids and metabolites. • (a) The wells of an enhanced binding 96 well polystyrene microtiter plate were coated with the Ig fraction of the antiserum raised to Immunogen I (Hapten A-BTG - example 5) and diluted in 10mM Tris, pH8.5 (125µl/well). The appropriate antibody coating concentration was determined using standard ELISA checkerboard techniques. The plate was incubated for 2 hours at 37°C, washed 4 times over a 10-minute period with Tris buffered saline containing Tween 20 (TBST) and tapped dry. Standard solutions of JWH synthetic cannabinoids, metabolites and selected molecules were prepared in TBST and 50µl of each was added to the appropriate wells. 75µl of conjugate (Hapten A-HRP) diluted in Tris buffer containing EDTA, D-mannitol, sucrose, thimerosal and BSA, was added to each of the wells. The appropriate dilution of conjugate was also determined using standard ELISA checkerboard techniques. The plate was incubated at 25°C for 1 hour. The excess unbound conjugate was removed by washing 6 times over a 10-minute period with TBST and tapped dry. 125µl of tetramethylbenzedine (TMB) substrate solution was added to each well of the plate that was then incubated for 15-20 minutes in the dark at room temperature. The reaction was terminated by addition of 125µl of 0.2M sulphuric acid to each well. The absorbance was then measured at 450nm using a microtiter plate reader. Employing each series of standards, calibration curves were generated and these were used to determine the specificity of the immunoassay for the JWH synthetic cannabinoids, metabolites and selected molecules. The results of this study are presented in Tables 1 to 3, cross-reactivity being calculated according to the following formula: %CR = […] /IC50,CR X 100 [formula] Where %CR is the percentage cross-reactivity, IC50, YWH-018 is the concentration of JWH-018 that causes 50% displacement of signal and IC50, CR is the concentration of JWH synthetic cannabinoid/metabolite/selected molecule that causes 50% displacement of signal.
Table 2: Data generated from a competitive microtiter plate assay for JWH synthetic cannabinoids and metabolites, employing antiserum raised to Immunogen I (Hapten A-BTG) and conjugate (Hapten A-HRP) as detection reagent. • (c) The resulting competitive ELISA for synthetic cannabinoids and metabolites was further employed to analyse urine and serum samples from 20 patients (Table 3). • (d) The resulting competitive ELISA for synthetic cannabinoids and metabolites was also employed to test for the 5-fluoropentyl derivative of JWH-018, (1-(5-fluoropentyl)indol-3yl (1-naphthyl) methanone (Table 4).

Antibody to Immunogen I = assay type: binding, sheep; details: Cross-reactants at 100 ng/ml; Antibody to Immunogen I
Outline: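 Sheep anti-Immunogen I IgG coated on plates, then JWH-018 standards (0–40 ng/ml) competed with hapten-HRP conjugate for 1 h at 25°C. TMB read-out at 450 nm, 4-parameter fit. IC50 is the standard concentration giving 50% B/B0; cross-reactivity of related cannabinoids taken from the calibration curves.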

Antibody to Immunogen IV = assay type: binding, sheep; details: Cross-reactants at 100 ng/ml; Antibody to Immunogen IV
[2] = system: Antibody to Immunogen VIII; assay type: binding, sheep; details: Cross-reactants at 100 ng/ml; Antibody to Immunogen VIII
[3] = system: Antibody to Immunogen VII; assay type: binding, sheep; details: Cross-reactants at 100 ng/ml; Antibody to Immunogen VII
[4] = system: antiserum raised to Immunogen II (Hapten B-BTG); experiment: Competitive ELISA microtiter plate assay (Example 19), antiserum raised to Immunogen II, Hapten A-HRP conjugate as detection reagent; assay type: binding, sheep; details: first Table 4, Immunogen II
Experimental: as §1, §2
Table 1: Data generated from a competitive microtiter plate assay for JWH synthetic cannabinoids and metabolites, employing antiserum raised to Immunogen II (Hapten B-BTG) and conjugate (Hapten A-HRP) as detection reagent. (b) In a similar manner to that described in Example 19(a), the wells of a 96 well microtiter plate were coated with the Ig fraction of the antiserum raised to Immunogen II ([…]). Conjugate (Hapten A-HRP) was employed as a detection reagent.

[5] = system: antiserum raised to Immunogen I (Hapten A-BTG); experiment: Competitive ELISA microtiter plate assay (Example 19), antiserum raised to Immunogen I, Hapten A-HRP conjugate as detection reagent; assay type: binding, sheep; details: first Table 4, Immunogen I
Experimental: as §1, §2
Table 1: Data generated from a competitive microtiter plate assay for JWH synthetic cannabinoids and metabolites, employing antiserum raised to Immunogen II (Hapten B-BTG) and conjugate (Hapten A-HRP) as detection reagent. (b) In a similar manner to that described in Example 19(a), the wells of a 96 well microtiter plate were coated with the Ig fraction of the antiserum raised to Immunogen II ([…]). Conjugate (Hapten A-HRP) was employed as a detection reagent. […]

CB1 receptor = CB1 receptor (Homo sapiens, UniProt P21554); details: result in words; detailed in US6900236; cited from earlier work
CB1 receptor, sequence (P21554 whole entry): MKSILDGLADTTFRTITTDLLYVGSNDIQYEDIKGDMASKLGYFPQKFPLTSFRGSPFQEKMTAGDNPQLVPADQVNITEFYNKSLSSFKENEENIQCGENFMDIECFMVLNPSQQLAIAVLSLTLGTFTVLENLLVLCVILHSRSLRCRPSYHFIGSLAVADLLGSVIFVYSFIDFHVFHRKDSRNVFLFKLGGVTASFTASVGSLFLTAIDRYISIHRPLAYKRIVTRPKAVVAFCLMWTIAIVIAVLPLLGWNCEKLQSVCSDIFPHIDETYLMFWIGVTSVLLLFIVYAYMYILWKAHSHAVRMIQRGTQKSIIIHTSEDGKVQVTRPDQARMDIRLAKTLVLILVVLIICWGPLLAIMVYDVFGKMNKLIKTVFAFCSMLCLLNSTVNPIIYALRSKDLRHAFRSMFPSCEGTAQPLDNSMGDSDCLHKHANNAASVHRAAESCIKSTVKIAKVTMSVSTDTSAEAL

Row | Structure (SMILES) | % CR [1] [%] | IC50 [1] [ng/mL] | %B/B0 (Antibody to Immunogen I) [%] | %B/B0 (Antibody to Immunogen IV) [%] | %B/B0 [2] [%] | %B/B0 [3] [%] | IC50 [4] [ng/mL] | % Cross-reactivity ([4]; JWH-018 = 100) [%] | IC50 [5] [ng/mL] | % Cross-reactivity ([5]; JWH-018 = 100) [%] | binding / cross-reaction with antibodies raised from Immunogens I and II [1] | binding to the CB1 receptor (CB1 receptor)
1 | CCCCCCC(C)(C)c1ccc([C@H]2CCC[C@@H](O)C2)c(O)c1 (racemic) [CP-49,497-C7 ((+-) CP 47,497), CP 47,497] | < 0.28 | > 750.00 | 101.20 | 96.84 | 86.95 | 94.23 |  |  |  |  |  | 
2 | O=C(c1cccc2ccccc12)c1cn(CCCCCF)c2ccccc12 [5-Fluoropentyl derivative, 1-(5-Fluoropentyl)indol-3-yl (1-naphthyl) methanone] |  |  |  |  |  |  | 0.22 | 908.00 | 0.02 | 11500.00 | binds | known to bind
3 | CCCCCc1cc(O)c2c(c1)OC(C)(C)[C@@H]1CCC(C)=C[C@@H]21 [Delta 9 THC] | < 0.28 | > 750.00 |  | 93.62 | 96.10 | 96.76 |  |  |  |  |  | 
4 | O=C(O)c1c[nH]c2ccccc12 [Indole-3-carboxylic Acid] | < 0.28 | > 750.00 |  | 93.42 | 96.28 | 96.90 |  |  |  |  | do not cross-react | 

— patent EP2698385A1, “Detection of synthetic cannabinoids” (priority 2012, dated 2014)
